Earlier results, collected in patent US20200129524A1, “PERSONALIZED CONTRACEPTIVE FORMULATIONS” (Agile Therapeutics, Inc., priority 2017, published 2020).

Target: T1, SHBG (Homo sapiens, UniProt P04278)
T1 sequence (P04278 30-402): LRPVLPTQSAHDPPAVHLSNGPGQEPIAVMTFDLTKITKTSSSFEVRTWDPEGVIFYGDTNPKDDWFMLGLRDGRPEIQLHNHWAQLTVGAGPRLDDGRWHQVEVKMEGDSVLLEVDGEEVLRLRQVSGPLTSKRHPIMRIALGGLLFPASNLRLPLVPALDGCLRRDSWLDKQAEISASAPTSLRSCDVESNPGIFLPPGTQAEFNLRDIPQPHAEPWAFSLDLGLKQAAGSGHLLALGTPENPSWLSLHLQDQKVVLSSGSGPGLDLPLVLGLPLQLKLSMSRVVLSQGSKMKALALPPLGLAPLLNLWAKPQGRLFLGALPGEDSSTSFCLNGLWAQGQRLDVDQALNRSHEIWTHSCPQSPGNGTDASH
Details: testosterone being 100; cited from earlier work

## C[C@]12CC[C@H]3[C@@H](CCC4=CC(=O)CC[C@@]43C)[C@@H]1CC[C@@H]2O [testosterone]
  relative binding affinity to SHBG: 100%
